Laboratory results published in patent US8999981B2, “3-amido-pyrrolo[3,4-C]pyrazole-5(1H, 4H,6H) carbaldehyde derivatives” (Pfizer Inc., priority 2007, dated 2015).

Molecular target: Protein Kinase C beta 2 (PKCβII) (Homo sapiens (Human), UniProt P05771)
Experiment: PKCβII coupled PK/LDH spectrophotometric kinase assay
Assay type: biochemical
Settings: apparent Ki, ATP-competitive model (Morrison equation); 0.1 mM ATP, 30° C.; read-out: PKCb Ki

Chain of Protein Kinase C beta 2 (PKCβII) (P05771 other isoform, or with tags, fused parts or gaps): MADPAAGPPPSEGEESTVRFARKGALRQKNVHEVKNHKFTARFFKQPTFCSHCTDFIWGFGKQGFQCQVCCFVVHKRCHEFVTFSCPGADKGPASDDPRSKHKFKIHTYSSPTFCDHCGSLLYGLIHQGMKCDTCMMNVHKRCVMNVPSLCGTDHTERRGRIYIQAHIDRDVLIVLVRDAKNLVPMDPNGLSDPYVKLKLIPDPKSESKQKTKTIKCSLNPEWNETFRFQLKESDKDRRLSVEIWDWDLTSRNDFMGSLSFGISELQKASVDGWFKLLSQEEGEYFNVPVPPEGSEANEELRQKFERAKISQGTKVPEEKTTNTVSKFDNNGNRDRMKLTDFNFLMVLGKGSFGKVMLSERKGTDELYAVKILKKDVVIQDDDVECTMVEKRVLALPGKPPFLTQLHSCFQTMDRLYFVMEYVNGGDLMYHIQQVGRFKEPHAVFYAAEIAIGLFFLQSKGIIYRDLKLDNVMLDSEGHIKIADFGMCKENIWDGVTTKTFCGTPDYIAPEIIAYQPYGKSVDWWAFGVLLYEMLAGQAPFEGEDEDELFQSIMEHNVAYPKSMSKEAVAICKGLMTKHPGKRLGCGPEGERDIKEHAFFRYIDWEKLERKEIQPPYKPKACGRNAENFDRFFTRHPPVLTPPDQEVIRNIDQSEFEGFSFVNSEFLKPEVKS

Compound | Ki [nM]
CC1(C)c2[nH]nc(NC(=O)c3cccc(Cl)c3)c2CN1C(=O)N1CCN2CCCC2C1 (centres unmarked) [Example A22] | 28.9
CC1(C)c2[nH]nc(NC(=O)c3ccccc3Cl)c2CN1C(=O)N1C[C@@H]2CCCN2C[C@@H]1Cc1ccccc1 [Example A19] | 91.4
COc1cccc(C(=O)Nc2n[nH]c3c2CN(C(=O)N2C[C@@H]4CCCN4C[C@@H]2Cc2ccccc2)C3(C)C)c1 [Example A17] | 16.1
CCc1ccc(C(=O)Nc2n[nH]c3c2CN(C(=O)N2C[C@@H]4CCCN4C[C@@H]2C)C3(C)C)nc1 [Example A50] | 82.1
C[C@H]1CN2CCC[C@H]2CN1C(=O)N1Cc2c(NC(=O)c3ccc(Cl)c(Cl)c3)n[nH]c2C1(C)C [Example A36] | 13.9
CCC1CN(C(=O)N2Cc3c(NC(=O)c4ccccn4)n[nH]c3C2(C)C)CCN1C (centres unmarked) [Example A79] | 79.6
C[C@H]1CN2CCC[C@H]2CN1C(=O)N1Cc2c(NC(=O)c3ccccc3F)n[nH]c2C1(C)C [Example A32] | 92.4
C[C@@H]1CN(C(=O)N2Cc3c(NC(=O)c4ccc(F)cn4)n[nH]c3C2(C)C)[C@@H](C)CN1CCCO [Example A162] | 21.7
CC[C@H]1CN2CCC[C@H]2CN1C(=O)N1Cc2c(NC(=O)c3ccccc3F)n[nH]c2C1(C)C [Example A72] | 105
CCc1cc(C(=O)Nc2n[nH]c3c2CN(C(=O)N2C[C@@H]4CCCN4C[C@@H]2C)C3(C)C)no1 [Example E1] | 61.6
C[C@H]1CN2CCC[C@H]2CN1C(=O)N1Cc2c(NC(=O)c3cc(N(C)C)ccn3)n[nH]c2C1(C)C [Example A87] | 32.3
C[C@@H]1CN(C(=O)N2Cc3c(NC(=O)c4ccccn4)n[nH]c3C2(C)C)[C@@H](C)CN1CCC1CCOCC1 [Example A145, N-(5-((2R,5S)-2,5-dimethyl-1-(2(tetradehydro-2H-pyran-4-yl)methyl)piperazine-4-carbonyl)-6,6-dimethyl-1,4,5,6-tetrahydropyrrolo[3,4-c]pyrazol-3-yl)picolinamide] | 17.6
Cc1cc(C(=O)Nc2n[nH]c3c2CN(C(=O)N2C[C@@H]4CCCN4C[C@@H]2C)C3(C)C)nn1C [Example A52] | 149
Cc1ccc(C(=O)Nc2n[nH]c3c2CN(C(=O)N2C[C@@H](C)N(C4CCOCC4)C[C@@H]2C)C3(C)C)nc1 [Example F54] | 12.2
COCCN1C[C@H](C)N(C(=O)N2Cc3c(NC(=O)c4ccccn4)n[nH]c3C2(C)C)C[C@H]1C [Example A93] | 63.6
C[C@@H]1CN(C(=O)N2Cc3c(NC(=O)c4ccccn4)n[nH]c3C2(C)C)[C@@H](C)CN1[C@@H](C)CCO [Example A155] | 43.3
CC[C@H]1CN2CCC[C@H]2CN1C(=O)N1Cc2c(NC(=O)c3ccccc3)n[nH]c2C1(C)C [Example A69] | 67.8
C[C@H]1CN2CCC[C@H]2CN1C(=O)N1Cc2c(NC(=O)C3CCCCO3)n[nH]c2C1(C)C (some centres unmarked) [Example A112] | 186
C[C@H]1CN2CCC[C@H]2CN1C(=O)N1Cc2c(NC(=O)c3cccc(C#N)c3)n[nH]c2C1(C)C [Example A60] | 17.1
C[C@@H]1CN(C(=O)N2Cc3c(NC(=O)c4ccccn4)n[nH]c3C2(C)C)[C@@H](C)CN1CC1CCOCC1 [Example A143] | 1.9
